# Results: US20080119530A1, “Method for treatment and prevention of ultraviolet light induced skin pathologies” (priority 2006, published 2008)
# Key:
# primary keratinocytes = details: cited from earlier work
# Cdc25a = Cdc25a immunoblotting in keratinocytes; format: cell-based, mouse; details: vs appropriate controls
# Procedure: Immunoblotting. Flash frozen skin was ground with a mortar and pestle on dry ice, homogenized in lysis buffer containing 10 mM Tris (pH 7.4), 150 mM NaCl, 10% glycerol, 1% Triton X-100, 1 mM EDTA, Complete Protease Inhibitor Cocktail (Roche, Germany), 1 mM Na3V O4, 1.5 μM EGTA, and 10 μM NaF. Protein was quantified using the Coomassie Brilliant Blue G-250 protein assay (Bio-Rad, Hercules, Calif.). The evenness of loading and transfer was determined by staining with Ponceau S and by actin immunoblotting. […]
# Cell culture. […] Transfection efficiency was quantified by determining the proportion of the cells that incorporated the fluorescent Cy3-conjugated siRNA or GFP one day post-transfection. […]
# In order to understand how Erbb2 regulates S-phase progression following UV irradiation, signaling pathways known to regulate progression into and through S-phase were examined. […] The effect of abrogation of Erbb2 on Cdc25a occurred post-transcriptionally, since no decrease in Cdc25a mRNA was detected in our microarray analysis using the Erbb2 inhibitor (32). […]
# Tg.AC mice = experiment: UV-induced skin tumorigenesis in v-rasHa transgenic Tg.AC mice; format: in vivo, mouse
# Description: Animals. Homozygous v-rasHa transgenic mice on an FVB/N background were used in in vivo experiments. To obtain keratinocytes with genetic ablation of Erbb2, loxP sites were inserted flanking exon 2 of Erbb2 such that splicing from exon1 to downstream introns upon Cre recombinase expression creates a frameshift mutation. Mice were maintained in our animal facility and provided with Purina lab chow (Nestle Purina PetCare, St. Louis, Mo.) and water ad libitum. The dorsal skin was clipped one day before treatment using electric clippers (Wahl, Sterling, II) and shaved on the day of treatment with a Remington Microscreen shaver (Madison, N.C.). […] The Ultraviolet-B TL 40W/12 RS bulbs (Philips, Somerset, N.J.) used emitted approximately 30% UVA, 70% UVB and <1% UVC, with a total output of 470 μW/cm^2, as measured with radiometric photodetector probes (Newport, Irvine, Calif.). For tumor experiments, homozygous Tg.AC mice were treated and exposed twice with an interval of 7 d. Tumor number was counted and tumor volume measured weekly using calipers. Skin-fold thickness was measured using calipers (Mitutoyo, Aurora, Ill.) to lightly pinch the dorsal skin. All animal procedures were performed in accordance with American Association of Laboratory Animal Care guidelines and approved by Creighton University's Institutional Animal Care and Use Committee.
# Statistical methods. The tumor experiment was analyzed using two-way ANOVA. Statistical significance in other experiments was assessed using two-way ANOVA or Student's t-test with Bonferroni post-test. All experiments, excluding the tumor experiment, were replicated several times and consistent results obtained.
# The skin tumorigenesis experiment was performed in v-ras^Ha transgenic Tg.AC mice because of their enhanced sensitivity to UV-induced skin tumorigenesis (13; 52). […] While the vehicle-treated mice continued to accrue tumors throughout the duration of the experiment, the AG825-treated group reached a plateau in tumor number by 7 weeks after the first UV exposure. By the end of the experiment, mean tumor volume was also 70% less in the AG825-treated group when compared to the vehicle control. Representative tumors from each treatment were examined histologically and all were benign squamous papillomas with similar differentiation status.
# Upon activation, Erbb2 heterodimerizes with either EGFR or Erbb3 to transduce signals. Support for the hypothesis that Erbb2 increases skin carcinogenesis comes from our investigations of the functions of its dimerization partner EGFR. A tumor study was conducted to assess the role of EGFR in the clonal expansion of transformed cells to form benign tumors in the skin of v-ras^Ha transgenic Tg.AC mice. Inhibition of EGFR with the tyrphostin inhibitor AG1478 decreased the number of tumors that developed by about 50% in UV-exposed v-rasHa transgenic mice. Mean tumor volume was 80% less upon inhibition of EGFR-mediated signaling when compared to, UV-exposed and vehicle-treated controls.
# [1] = current Erbb2-targeted therapies; cited from earlier work
Molecule,S-phase arrest in keratinocytes by chemotherapeutic agents (primary keratinocytes),skin toxicity [1],further results
"O=c1[nH]cc(F)c(=O)[nH]1 [5-FU, 5-fluorouracil]",cause S-phase arrest,–,–
COc1cc2ncnc(Nc3cccc(Cl)c3)c2cc1OC [AG1478],–,–,"Cdc25a immunoreactivity (Cdc25a): not decreased; mean tumor volume less than UV-exposed vehicle-treated controls (Tg.AC mice; EGFR inhibition): 80%; decrease in the number of tumors that developed (Tg.AC mice; UV-exposed v-rasHa transgenic mice, EGFR inhibition): about 50%; UV-induced carcinogenesis (FIG. 6) (Tg.AC mice; topical treatment 2 h prior to UV irradiation): suppress"
COCC(=O)NC/C=C/c1ccc2ncnc(Nc3ccc(Oc4ccc(C)nc4)c(C)c3)c2c1 [CP-724714],–,Low incidence,–
CC[C@@]1(O)C(=O)OCc2c1cc1n(c2=O)Cc2cc3ccccc3nc2-1 [camptothecin],cause S-phase arrest,–,–
pertuzumab: current Erbb2-targeted therapy,–,Low incidence,–
